According to ChEMBL document CHEMBL1201862, “PubChem BioAssay data set” (2004):
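How tested: cells in 96-well plates exposed to compound for 48 hours at five concentrations. The concentration for 50% growth inhibition is given as GI50.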 The source made the active and inactive calls. Cut-off read from the data, not from the text of the source: active = GI50 up to about 1.1 µM and inactive = higher.

Assays:
Assay in all cases: inhibition of tumour cell growth, NCI panel, 48 h
786-0 = test system: 786-0
A498 = test system: A498
A549 = test system: A549
ACHN = test system: ACHN
BT-549 = test system: BT-549
CAKI-1 = test system: CAKI-1
CCRF-CEM = test system: CCRF-CEM
COLO 205 = test system: COLO 205
DU-145 = test system: DU-145
EKVX = test system: EKVX
HCT-116 = test system: HCT-116
HCT-15 = test system: HCT-15
HOP-62 = test system: HOP-62
HOP-92 = test system: HOP-92
HT-29 = test system: HT-29
Hs-578T = test system: Hs-578T
IGROV-1 = test system: IGROV-1
K562 = test system: K562
KM12 = test system: KM12
LOX IMVI = test system: LOX IMVI
M14 = test system: M14
MCF7 = test system: MCF7
MDA-MB-231 = test system: MDA-MB-231
MDA-MB-435 = test system: MDA-MB-435
MDA-N = test system: MDA-N
MOLT-4 = test system: MOLT-4
Malme-3M = test system: Malme-3M
NCI-H226 = test system: NCI-H226
NCI-H23 = test system: NCI-H23
NCI-H460 = test system: NCI-H460
NCI-H522 = test system: NCI-H522
NCI/ADR-RES = test system: NCI/ADR-RES
OVCAR-3 = test system: OVCAR-3
OVCAR-4 = test system: OVCAR-4
OVCAR-5 = test system: OVCAR-5
OVCAR-8 = test system: OVCAR-8
PC-3 = test system: PC-3
RPMI-8226 = test system: RPMI-8226
RXF 393 = test system: RXF 393
SF-268 = test system: SF-268
SF-295 = test system: SF-295
SF-539 = test system: SF-539
SK-MEL-28 = test system: SK-MEL-28
SK-MEL-2 = test system: SK-MEL-2
SK-MEL-5 = test system: SK-MEL-5
SK-OV-3 = test system: SK-OV-3
SN12C = test system: SN12C
SNB-19 = test system: SNB-19
SNB-75 = test system: SNB-75
SW-620 = test system: SW-620
T47D = test system: T47D
TK-10 = test system: TK-10
U-251 = test system: U-251
UACC-257 = test system: UACC-257
UO-31 = test system: UO-31
HL-60 = test system: HL-60
UACC-62 = test system: UACC-62
HCC 2998 = test system: HCC 2998

CC(Nc1ccc(Cl)c(Cl)c1)c1ccncc1 (stereo not given)
GI50 (786-0): 29 µM (inactive) | GI50 (A498): 20.1 µM (inactive) | GI50 (A549): 10.5 µM (inactive) | GI50 (ACHN): 19.1 µM (inactive) | GI50 (BT-549): 26.1 µM (inactive) | GI50 (CAKI-1): 31 µM (inactive) | GI50 (CCRF-CEM): 20.7 µM (inactive) | GI50 (COLO 205): 16.5 µM (inactive) | GI50 (DU-145): 30.2 µM (inactive) | GI50 (EKVX): 39.9 µM (inactive) | GI50 (HCT-116): 16.6 µM (inactive) | GI50 (HCT-15): 40.3 µM | GI50 (HOP-62): 20.9 µM (inactive) | GI50 (HOP-92): 18.9 µM (inactive) | GI50 (HT-29): 23.7 µM (inactive) | GI50 (Hs-578T): > 10 µM (inactive) | GI50 (IGROV-1): 25.4 µM (inactive) | GI50 (K562): 45.3 µM (inactive) | GI50 (KM12): 14.9 µM (inactive) | GI50 (LOX IMVI): 18.4 µM (inactive) | GI50 (M14): 29 µM (inactive) | GI50 (MCF7): 22.4 µM (inactive) | GI50 (MDA-MB-231): 16 µM (inactive) | GI50 (MDA-MB-435): 29.4 µM (inactive) | GI50 (MDA-N): 24.6 µM (inactive) | GI50 (MOLT-4): 19.5 µM (inactive) | GI50 (Malme-3M): 34.3 µM (inactive) | GI50 (NCI-H226): 17.9 µM (inactive) | GI50 (NCI-H23): 31.4 µM (inactive) | GI50 (NCI-H460): 16.6 µM (inactive) | GI50 (NCI-H522): 12.5 µM (inactive) | GI50 (NCI/ADR-RES): 28.1 µM (inactive) | GI50 (OVCAR-3): 26.8 µM (inactive) | GI50 (OVCAR-4): 58.2 µM (inactive) | GI50 (OVCAR-5): > 10 µM (inactive) | GI50 (OVCAR-8): 21.8 µM (inactive) | GI50 (PC-3): 19.4 µM (inactive) | GI50 (RPMI-8226): 5.75 µM (inactive) | GI50 (RXF 393): 17.6 µM (inactive) | GI50 (SF-268): 44 µM (inactive) | GI50 (SF-295): 23.9 µM (inactive) | GI50 (SF-539): 30.8 µM (inactive) | GI50 (SK-MEL-28): 35.7 µM (inactive) | GI50 (SK-MEL-2): 22.9 µM (inactive) | GI50 (SK-MEL-5): 16.7 µM (inactive) | GI50 (SK-OV-3): 11.4 µM (inactive) | GI50 (SN12C): 50.7 µM (inactive) | GI50 (SNB-19): 22.5 µM (inactive) | GI50 (SNB-75): 23 µM (inactive) | GI50 (SW-620): 20.7 µM (inactive) | GI50 (T47D): 51.6 µM (inactive) | GI50 (TK-10): 31.9 µM (inactive) | GI50 (U-251): 19.9 µM (inactive) | GI50 (UACC-257): 26.2 µM (inactive) | GI50 (UO-31): 11.6 µM (inactive)

CSc1nc2ccccc2c(=O)n1/N=C1\C(=O)N(CN2CCOCC2)c2ccc(Cl)cc21
GI50 (786-0): 34.8 µM (inactive) | GI50 (A498): 26.2 µM (inactive) | GI50 (A549): 35.4 µM (inactive) | GI50 (ACHN): 26.1 µM (inactive) | GI50 (BT-549): 15.6 µM (inactive) | GI50 (CAKI-1): 25.5 µM (inactive) | GI50 (CCRF-CEM): 10.6 µM (inactive) | GI50 (COLO 205): 17.1 µM (inactive) | GI50 (DU-145): 18.5 µM (inactive) | GI50 (EKVX): 2.6 µM (inactive) | GI50 (HCT-116): 22.4 µM (inactive) | GI50 (HCT-15): 22.9 µM | GI50 (HL-60): 8.61 µM (inactive) | GI50 (HOP-62): 34.3 µM (inactive) | GI50 (HOP-92): 67 µM (inactive) | GI50 (HT-29): 23.7 µM (inactive) | GI50 (Hs-578T): 44.2 µM (inactive) | GI50 (IGROV-1): 16.8 µM (inactive) | GI50 (K562): 5.77 µM (inactive) | GI50 (KM12): 29.5 µM (inactive) | GI50 (LOX IMVI): 15.2 µM (inactive) | GI50 (M14): 26.5 µM (inactive) | GI50 (MCF7): 19.6 µM (inactive) | GI50 (MDA-MB-231): 47.4 µM (inactive) | GI50 (MDA-MB-435): 28.4 µM (inactive) | GI50 (MDA-N): 31.8 µM (inactive) | GI50 (MOLT-4): 10.9 µM (inactive) | GI50 (Malme-3M): > 100 µM (inactive) | GI50 (NCI-H226): 53.3 µM (inactive) | GI50 (NCI-H23): 21.8 µM (inactive) | GI50 (NCI-H460): 15.2 µM (inactive) | GI50 (NCI-H522): 31.1 µM (inactive) | GI50 (NCI/ADR-RES): > 100 µM (inactive) | GI50 (OVCAR-3): 54.5 µM (inactive) | GI50 (OVCAR-4): 33.8 µM (inactive) | GI50 (OVCAR-5): 26 µM (inactive) | GI50 (OVCAR-8): 39.6 µM (inactive) | GI50 (PC-3): 29 µM (inactive) | GI50 (RXF 393): 18.1 µM (inactive) | GI50 (SF-268): 36.9 µM (inactive) | GI50 (SF-295): 46.1 µM (inactive) | GI50 (SF-539): 26.7 µM (inactive) | GI50 (SK-MEL-28): 56.2 µM (inactive) | GI50 (SK-MEL-2): 20.6 µM (inactive) | GI50 (SK-MEL-5): 38.7 µM (inactive) | GI50 (SK-OV-3): 30.6 µM (inactive) | GI50 (SN12C): 48.2 µM (inactive) | GI50 (SNB-19): 46.8 µM (inactive) | GI50 (SNB-75): 41.5 µM (inactive) | GI50 (SW-620): 17.6 µM (inactive) | GI50 (T47D): 16.5 µM (inactive) | GI50 (TK-10): 16.9 µM (inactive) | GI50 (U-251): 32.5 µM (inactive) | GI50 (UACC-257): 19.8 µM (inactive) | GI50 (UACC-62): 6.68 µM (inactive) | GI50 (UO-31): 28.1 µM (inactive)

O=[N+]([O-])/C(C(Cl)=C(Cl)Cl)=C(\Nc1cccc2cccnc12)Sc1ccccc1
GI50 (786-0): 20 µM (inactive) | GI50 (A498): 20 µM (inactive) | GI50 (A549): 29.9 µM (inactive) | GI50 (ACHN): 22.8 µM (inactive) | GI50 (BT-549): 21.9 µM (inactive) | GI50 (CAKI-1): 22 µM (inactive) | GI50 (CCRF-CEM): 27.7 µM (inactive) | GI50 (COLO 205): 17.1 µM (inactive) | GI50 (DU-145): 22.9 µM (inactive) | GI50 (EKVX): 27.4 µM (inactive) | GI50 (HCC 2998): 78.2 µM (inactive) | GI50 (HCT-116): 19.4 µM (inactive) | GI50 (HCT-15): 17.5 µM | GI50 (HOP-62): 23.4 µM (inactive) | GI50 (HT-29): 23.4 µM (inactive) | GI50 (Hs-578T): 13.4 µM (inactive) | GI50 (K562): 28.4 µM (inactive) | GI50 (KM12): 12.6 µM (inactive) | GI50 (M14): 39.3 µM (inactive) | GI50 (MCF7): 20.8 µM (inactive) | GI50 (MDA-MB-231): 18.2 µM (inactive) | GI50 (MDA-MB-435): 18.7 µM (inactive) | GI50 (MDA-N): 43 µM (inactive) | GI50 (MOLT-4): 12.9 µM (inactive) | GI50 (Malme-3M): 23.1 µM (inactive) | GI50 (NCI-H226): 28.6 µM (inactive) | GI50 (NCI-H23): 18.3 µM (inactive) | GI50 (NCI-H460): 34.4 µM (inactive) | GI50 (NCI/ADR-RES): 22.1 µM (inactive) | GI50 (OVCAR-3): 11.4 µM (inactive) | GI50 (OVCAR-4): 23.1 µM (inactive) | GI50 (OVCAR-5): 20.8 µM (inactive) | GI50 (PC-3): 18.8 µM (inactive) | GI50 (RPMI-8226): 31.5 µM (inactive) | GI50 (SF-268): 17.9 µM (inactive) | GI50 (SF-295): 19 µM (inactive) | GI50 (SF-539): 20.8 µM (inactive) | GI50 (SK-MEL-28): 20.4 µM (inactive) | GI50 (SK-MEL-2): 17.1 µM (inactive) | GI50 (SK-OV-3): 34.2 µM (inactive) | GI50 (SN12C): 22.2 µM (inactive) | GI50 (SNB-19): 31.6 µM (inactive) | GI50 (SNB-75): 23.7 µM (inactive) | GI50 (SW-620): 18 µM (inactive) | GI50 (T47D): 18.3 µM (inactive) | GI50 (U-251): 16.2 µM (inactive) | GI50 (UACC-257): 19.8 µM (inactive) | GI50 (UACC-62): 11.1 µM (inactive) | GI50 (UO-31): 18.9 µM (inactive)
